Experiments:
[1] = Repeated oral administration toxicity in rats; assay type: in vivo; conditions: orally administered repeatedly once a day for one week, 150 mg/kg/day
[2] = system: hippocampal neurons; assay: Test Example 1: ability to promote axonal outgrowth; assay type: cell-based, Wistar rats; conditions: Hippocampal neuron, 216 h; Compound Conc. = 3 μM; % of control; rat hippocampal neurons, day 9; read-out: Promotion of axonal outgrowth (%)
In short: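 Embryonic day-18 Wistar rat hippocampal neurons were cultured at 37° C, treated with AraC from day 3, and given compound at 3 μM and 0.3 μM on days 3 and 7. On day 9, GAP-43-stained axons were quantified and expressed as % of control; bFGF-based threshold is 120.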

[3] = system: spinal cord neurons; assay: Test Example 3: ability to promote the neurite outgrowth of spinal cord neurons; assay type: cell-based, Wistar rats; conditions: Compound Conc. = 0.1 μM; % of control, day 3
Description: According to the method of Martin G. Hanson Jr. [J. Neurosci., 1998 Sep. 15; 18(18): 7361-71], the spinal cord region was isolated from 15-day embryos of female Wistar rats and the cells were dispersed using the papain dissociation system. Neurons were collected using 6.8% Metrizamide density gradient and were suspended in 2% FBS+Leibovitz's −15 medium so that the density of the cells will be 2×10^3 cells/well/200 μL. 200 μL of the cell suspension was inoculated on a poly-D-lysine/laminin-coated 96 well plate and the plate was incubated in an incubator at 37° C. Test compounds were added 1 hour after seeding of cells.
On day 3 of the incubation period, neurons were stained with Calcein-AM and the lengths of neurites were determined using IN Cell Analyzer (GE Healthcare Bioscience).
The ability (%) of each test compound to promote neurite outgrowth was calculated from the following equation: The ability to promote neurite outgrowth (%)=[(measurement with a compound of interest)/(measurement of control)]×100
Example Compounds 65, 71, 74, 92, 130 and 135 were used as test compounds and were each added at a concentration of 0.1 μM.
The results are shown in Table 27. bFGF gives a measurement of about 130 in this test.

[4] = system: critical limb ischemia model (left femoral artery excised); assay: Test Example 4: lower limb ischemia (critical limb ischemia) model in mice; assay type: in vivo, Balb/c mice; conditions: oral once daily 0.1 or 1.0 mg/kg for 10 days from femoral artery excision, vs Vehicle
Description: According to the method of Ichiro Masaki [Circ Res. 90; 966-973 (2002)], the left femoral artery of Balb/c mice was excised to establish a model of critical limb ischemia (n=29 to 30).
Test compounds used were Example Compounds 65, 92, 114, 130, 135 and 136, each of which was orally administered once daily at a dose of 0.1 mg/kg or 1.0 mg/kg for 10 days starting from the day of femoral artery excision.
The results are shown in FIGS. 1 to 6 in which FIGS. 1, 2, 3, 4, 5 and 6 show the results of Example Compounds 65, 92, 114, 130, 135 and 136, respectively.
In the figures, a thick solid line indicates a Vehicle group, a thin dotted line indicates a group administered 0.1 mg/kg/day of each compound, and a thin solid line indicates a group administered 1.0 mg/kg/day of each compound.
*: P<0.05, **: P<0.01, ***: P<0.001 vs Vehicle by Wilcoxon's test.

[5] = system: myocardial infarction model (LAD occluded); assay: Test Example 5: myocardial infarction model in rats; assay type: in vivo, Slc:SD rats; conditions: oral once daily 0.01, 0.1 or 1.0 mg/kg for 28 days, 4 weeks after myocardial infarction
Description: According to the method of Masakatsu Wakeno et al. [Circulation 114: 1923-1932 (2006)], 10-week-old male Slc:SD rats were anesthetized with pentobarbital and cut open in the chest area. The left anterior descending coronary artery (LAD) was completely occluded to establish a myocardial infarction model. Sham group underwent only thoracic surgical procedure.
The test compound used was Example Compound 65, which was orally administered once daily at a dose of 0.01 mg/kg, 0.1 mg/kg or 1.0 mg/kg for 28 days starting from the day of establishment of myocardial infarction model (after awakening from anesthesia).
4 weeks after establishing myocardial infarction, animals were anesthetized with pentobarbital and monitored for their cardiachemodynamics using a mirror catheter. Subsequently, blood samples were collected from the abdominal aorta, wet lung weight was measured, and plasma BNP levels after arterial blood sampling were measured (RIA).
FIGS. 7, 8, 9 and 10 show the results of LVEDP, LVdP/dt max, lung weight and plasma […] levels, respectively.
#: P<0.05, ##: P<0.01 between sham and control by Student's t-test
*: P<0.05, **: P<0.01: vs control by Dunnett's test

[6] = system: spinal cord injury (SCI) model; assay: Test Example 7: spinal cord injury (SCI) model in rats; assay type: in vivo, Slc: SD rats; conditions: 1 mg/kg through the tail vein once daily for 10 days, once a week until 5 weeks after surgery
Excerpt: According to the method of Venkata Ramesh Dasari et al. [J Neurotrauma. 2007 February; 24(2):391-410], 9-week-old female Slc: SD rats were used. Animals were anesthetized with pentobarbital and incised along the dorsal midline. After the spinal column was exposed by dorsal midline incision, the 9th thoracic vertebral arch was removed with bone scissors, paying attention not to damage the dura mater. The upper and lower bones were held in place to position the exposed spinal site just under the impactor device (where impact is applied) and then a 200-kdyn force was applied to the site. Tonic extension of the lower limbs by the spinal cord injury was checked.
The test compound used was Example Compound 65, which was administered at a dose of 1 mg/kg. Specifically, the compound was administered through the tail vein once daily for 10 days, starting from 90 min after the surgery. The motor function of lower limb was evaluated by BBB score (Basso D M, Beattie M S, Bresnahan J C: J Neurotrauma. 1995; 12:1-21) once a week until 5 weeks after surgery.

For `Cc1nc(OCC(=O)N(C)C2CCN(Cc3ccccc3)CC2)nc(C)c1N` [Compound 65, 2-(5-amino-4,6-dimethylpyrimidine-2-yloxy)-N-(1-benzylpiperidine-4-yl)-N-methylacetamide], the toxicity [1] was “did not exhibit toxicity”, the activity at 3 µM [2] was 134% and the “Promotion of spinal cord neurite outgrowth (%)” value [3] was 135%. For the same compound, the “survival rate of lower limb” value [4] was “increased survival rate”, the “end-diastolic pressure (LVEDP)” value [5] was “suppressed” and the “maximum left ventricular contraction and diastolic velocity (LVdP/dt max)” value [5] was “suppressed the decrease”. For the same compound, the wet lung weight [5] was “suppressed”, the “plasma BNP levels” value ([5]; RIA) was “suppressed the increase” and the “motor function of lower limb (BBB score)” value [6] was “highly effective in ameliorating spinal cord injury”.

Source: patent US8592435B2, “Nitrogen-containing six-membered aromatic ring derivatives and pharmaceutical products containing the same” (Daiichi Sankyo Company, Limited, priority 2007, dated 2013)
